Source: a melting point compilation (Tetko et al.; mined from patent text by program, amines drawn as free bases though some values may be those of a salt)

First: CCOC(=O)c1csc(/C=C/c2cccc(NC(=O)Cc3ccccc3C(=O)O)c2)n1
Second: O=C(Cc1ccccc1)Nc1ccc2ccc(Cl)nc2n1
The melting point of the first is higher: 221 to 223 °C for the first, 187 °C for the second.

First: O=S1(=O)NCCNc2ccc(Oc3cccc(CO)c3)cc21
Second: O=P(O)(O)Oc1cccc(-c2cn3c(n2)sc2ccccc23)c1
The melting point of the first is lower: 146 °C for the first, 205 to 208 °C for the second.

Compared with `O=Cc1c2ccccc2c(OCCOCc2ccccc2)c2ccccc12`, `O=Cc1c2ccccc2c(OCCO)c2ccccc12` is higher in melting point: 68 to 69 °C for the first, 142 to 144 °C for the second.

Compared with `OC[C@@H]1CC[C@H]2CN(c3ncccn3)CCN2C1` (relative stereo), `CCN1C(=O)Cc2cnc(N3CCN(Cc4ccccc4)CC3)nc21` is lower in melting point: 135 to 136 °C for the first, 110 to 113 °C for the second.

First: Cc1nc(N)c(O)c(=O)[nH]1
Second: CCOC(=O)c1c(O)c2ccc(F)cc2c(=O)n1CC(C)(C)C
The melting point of the first is higher: > 300 °C for the first, 92 to 93 °C for the second.

First: CCOC(=O)C1CCc2c(sc3nc(CN4C(=O)COC4=O)c(Cl)c(-c4ccc(OC)cc4)c23)C1 (stereo not given)
Second: COc1ccc2cc3c(c(-c4ccc5c(c4)OCO5)c2c1OC)CNC3=O
The melting point of the first is lower: 118 to 119 °C for the first, 255 to 256 °C for the second.

First: CCCCc1cn(Cc2ccc(-c3ccccc3C(=O)O)cc2)c2ccccc2c1=O
Second: O=C(c1ccc(Cl)cc1)n1cc(CCN=c2sc3ccccc3s2)c2ccccc21
The melting point of the first is higher: 214 °C for the first, 135 °C for the second.

First: N#CC1CN1Cc1ccc(C(=O)O)s1 (stereo not given)
Second: CN(C)CC1CCCCN1CC(=O)N1c2ccccc2NC(=O)c2cscc21 (stereo not given)
The melting point of the first is lower: 108 to 111 °C for the first, 208 to 209 °C for the second.

First: O=P(O)(c1ccccc1)c1ccc(S(=O)(=O)c2ccccc2)cc1
Second: O=C1c2ccc(S(=O)(=O)c3ccccc3)cc2C(=O)c2cc3ccccc3cc21
The melting point of the first is lower: 220 to 224 °C for the first, > 260 °C for the second.

First: OCc1cc(CO)n(C(c2ccccc2)(c2ccccc2)c2ccccc2)n1
Second: COC(=O)c1ccccc1N(c1ccccc1)C1(c2ccc(N(C)C)cc2)OC(=O)c2ccccc21 (stereo not given)
The melting point of the first is higher: 180 to 182 °C for the first, 92.5 to 102 °C for the second.

Compared with `O=C(O)c1ccc(-c2ccc3oc([N+](=O)[O-])c(-c4ccccc4)c3c2)cc1`, `CSc1nc(NS(=O)(=O)c2ccc(C(C)(C)C)cc2)c(-c2ccc(C)cc2)c(OCCOCc2ccccc2)n1` is lower in melting point: 259 to 261 °C for the first, 115 to 116 °C for the second.

First: CC#Cc1ccc(-c2ccc(-c3ccc(CCCCC)c(F)c3F)cc2)cc1
Second: CCCCCCCCCCOc1cccc(Nc2nnc(Cc3ccncc3)c3ccccc23)c1
The melting point of the first is higher: 127 °C for the first, 116 to 119 °C for the second.

First: N#Cc1nn(-c2c(Cl)cc(-c3ccc(C(F)(F)F)cc3)cc2Cl)c(N)c1S(=O)(=O)C(F)(F)F
Second: FC(F)(F)c1ccc2[nH]c(-c3csc(Cc4c(Cl)cccc4Cl)n3)nc2c1
The melting point of the first is higher: 197 to 202 °C for the first, 187 to 189 °C for the second.

First: CN(C)C1CCc2c(ccc(O)c2C(N)=O)C1 (stereo not given)
Second: CN1CCN(C(=O)C(=O)Nc2cc(C#N)ccc2O)CC1
The melting point of the first is lower: 65 to 66 °C for the first, 256 °C for the second.

Compared with `O=C1CCSc2sccc21`, `O=C1CCCC(O)=C1C(=O)Nc1ccc(Cl)cc1` is higher in melting point: 61 to 62 °C for the first, 113 to 114 °C for the second.

Compared with `Cn1nc(-c2ccccc2)c(N2CCOCC2)c(C=NO)c1=O`, `CN1c2ccccc2N=C(N2CCN(CCO)CC2)c2cscc21` is higher in melting point: 182 to 183 °C for the first, 192 to 193 °C for the second.

First: CC1CN=C2C=CC(c3cccnc3)=NN21 (stereo not given)
Second: CC(C)(C)OC(=O)NC(Cc1cnc2ccccc2c1)C(=O)O (stereo not given)
The melting point of the first is lower: 104 to 105 °C for the first, 159 to 160 °C for the second.

First: Cc1c(O)c(C=O)c2nc3c(O)ccc(C(=O)NCCN(C)C)c3nc2c1O
Second: CCSc1c(Nc2c(C)c(=O)c2=O)ccc2[nH]cc(CCCO)c12
The melting point of the first is higher: > 250 °C for the first, 119 °C for the second.

First: FC(F)(F)c1cc(CO[C@H]2CCCN(Cc3nsc(I)n3)[C@H]2c2ccccc2)cc(C(F)(F)F)c1
Second: c1ccc(COc2ccc(-c3nc4cccc(OCc5ccccc5)c4[nH]3)cc2C23CC4CC(CC(C4)C2)C3)cc1
The melting point of the first is lower: 98 to 101 °C for the first, 109 to 111 °C for the second.

First: Cc1csc2[nH]c(C(=O)c3ccccc3)cc12
Second: COC(=N)c1sc2ccccc2c1O
The melting point of the first is lower: 199 °C for the first, 201 °C for the second.

First: CCCc1cn2cc(C(=O)OC)nc2s1
Second: CCOC(=O)C(=O)Nc1cccc(NC(=O)C(=O)OCC)c1
The melting point of the first is higher: 155 to 156 °C for the first, 150 °C for the second.

Compared with `CCOC(=O)C1=C(C)NC(c2cscn2)=NC1c1cccc(O)c1` (stereo not given), `Cc1oc(C(C)(C)C)nc1COc1ccc(CC(OC(C)C)C(=O)O)c2sccc12` (stereo not given) is lower in melting point: 180 to 183 °C for the first, 166 to 167 °C for the second.

Compared with `COc1cc(Cc2nc(NC(C)C)c3c(C)c(C#N)sc3n2)cc(OC)c1OC`, `Cc1cc(F)ccc1-c1nc(OCCN)nc2c1ccc(=O)n2-c1c(F)cccc1F` is lower in melting point: 143 to 147 °C for the first, 96 to 99 °C for the second.

First: COC(=O)Nc1cccc2c1C(=O)c1ccccc1C2=O
Second: COc1ccc(-c2nc(S(=O)CC3OCCO3)[nH]c2-c2ccc(OC)cc2)cc1 (stereo not given)
The melting point of the first is higher: 214 °C for the first, 203 to 204 °C for the second.

Compared with `[N-]=[N+]=NCC1OC(n2cc(C=CBr)c(=O)[nH]c2=O)CC1Cl` (stereo not given), `COC(=O)CCCCCCCCCCCCCCCCCOS(=O)(=O)c1ccc(C)cc1` is higher in melting point: 58 to 60 °C for the first, 67.5 to 68.5 °C for the second.
